Test [1] relates to cGAS-STING, MyD88 and canonical NF-κB pathways in M2 BMDMs. Put plainly: Western blotting of cGAS-STING, MyD88 and canonical NF-κB pathways. Conditions: excessive ER stress induction. Format: cell-based, mouse. As to the method:
A western blot was performed as described in Example 1, to assess whether the cationic polypeptides activate innate immune sensors in APCs.
(In general: Immunoblotting shows a protein as a band on a membrane.)

The test system of test [2] is ER stress markers BiP, EIF2α, CHOP, XBP1 in bone marrow-derived macrophages. Put plainly: ER stress markers (western blotting, XBP1 RT-qPCR). Format: cell-based, mouse.
Procedure: M2 BMDMs (1.5×10^7 cells/100 mm^2 petri dish) or cancer cells (2×10^6 cells per 6-well plates) were treated with the experimental solutions. To evaluate inhibitory conditions, cells were pre-treated with CsA (10 μM, TCI America) for 3 h, or co-treated with 4-PBA (5 mM in phosphate-buffered saline [PBS], Tocris Bioscience, USA) and chloroquine (10 μg/mL, Alfa Aesar, USA). Each protein was extracted by using RIPA buffer containing 1% protease inhibitor and 1% phosphatase inhibitor cocktail. Protein concentrations were adjusted to 3 mg/mL by using a BCA kit, with FBS used as a standard. Electrophoresis was carried out by loading proteins (40 μg) into each lane of a sodium dodecyl sulfate-polyacrylamide gel (SDS-PAGE) gel, after which the proteins were transferred to a polyvinylidene fluoride membrane. After blocking, the PVDF membrane was treated with the corresponding primary antibody, and then washed with TBS-T three times before the treatment with the secondary antibody. The blot signals were visualized with a Chemidoc system (ChemiDoc MP imaging system, BioRad, USA).

With tunicamycin, the “activation of MyD88 and STING in macrophages” value in test [1] was “inhibited activation of MyD88 and STING in macrophages”. The “ER stress / ER stress markers” value in test [2] is “detrimental levels”.

Values taken from US20260284209A1, “POLYPEPTIDE ADJUVANTS AND USES THEREOF” (BOARD OF REGENTS, THE UNIVERSITY OF TEXAS SYSTEM, priority 2023, published 2026).
